Measured values from BigSolDB 2.1.

O=C(O)COc1ccc(Cl)cc1
solubility (mole fraction)
Conditions	283.15 K	288.15 K	293.15 K	298.15 K	303.15 K	308.15 K	313.15 K	318.15 K	323.15 K
in 1,4-dioxane	–	0.113	0.124	0.135	0.146	0.16	0.176	0.194	0.212
in acetonitrile	0.00781	0.00938	0.0114	0.0134	0.0159	0.0198	0.0241	0.0298	0.0359
in ethanol	0.0308	0.0347	0.0406	0.0472	0.0545	0.0643	0.0796	0.0962	0.114
in ethyl acetate	0.0266	0.0303	0.036	0.0413	0.0468	0.0537	0.0637	0.0731	0.0827
in ethyl formate	0.0139	0.0164	0.0193	0.0223	0.0254	0.0299	0.036	0.0423	0.0487
in isobutanol	0.0146	0.0178	0.0224	0.0286	0.0365	0.0453	0.0558	0.0688	0.0843
in isopropanol	0.0214	0.0267	0.0324	0.039	0.0476	0.0586	0.0703	0.0844	0.0997
in methyl acetate	0.0285	0.0325	0.0379	0.0433	0.0496	0.0567	0.0659	0.0766	0.0882
in n-butanol	0.0243	0.0282	0.0343	0.0415	0.0501	0.0604	0.0721	0.0855	0.101
in n-butyl acetate	0.0218	0.0246	0.0289	0.0334	0.0387	0.0446	0.0514	0.0593	0.0682
in n-propanol	0.0255	0.0292	0.0348	0.0415	0.0506	0.0618	0.0748	0.089	0.11
in n-propyl acetate	0.0235	0.0268	0.0303	0.035	0.0398	0.0454	0.0524	0.0604	0.0698
in sec-butanol	0.0224	0.0279	0.034	0.0413	0.0505	0.0617	0.0745	0.0888	0.107
